# Reference: ChEMBL document CHEMBL3885881, “DrugMatrix”
# Species: Rattus norvegicus
# Test: DrugMatrix - Regimen: Daily Repeat
# Format: toxicity, organism-based, Sprague-Dawley
# Design: regimen Daily Repeat, gender Male, age 6-8 weeks
# Conditions: in vivo, iv, vehicle 100 % SALINE; for ABSOLUTE BASOPHIL / ABSOLUTE EOSINOPHIL / ABSOLUTE LYMPHOCYTE / ABSOLUTE MONOCYTE / ABSOLUTE SEGMENTED NEUTROPHIL / BASOPHIL / EOSINOPHIL / ERYTHROCYTE COUNT / HEMATOCRIT / HEMOGLOBIN / LEUKOCYTE COUNT / LYMPHOCYTE / MEAN CORPUSCULAR HEMOGLOBIN / MEAN CORPUSCULAR HEMOGLOBIN CONCENTRATION / MEAN CORPUSCULAR VOLUME / MONOCYTE / NEUTROPHIL / NUCLEATED RED BLOOD CELLS / PLATELET COUNT: tissue Blood; for ALANINE AMINOTRANSFERASE / ALBUMIN / ALKALINE PHOSPHATASE / ASPARTATE AMINOTRANSFERASE / BLOOD UREA NITROGEN / CARBON DIOXIDE / CHLORIDE / CHOLESTEROL / CREATINE PHOSPHOKINASE / CREATININE / GLUCOSE / LACTATE DEHYDROGENASE / LIPASE / PHOSPHORUS / POTASSIUM / SODIUM / TOTAL BILIRUBIN / TOTAL PROTEIN / URIC ACID: tissue Plasma
# [1] = 0 mg/kg, 72 h, dose level Control, time 3 day
# [2] = 0 mg/kg, 120 h, dose level Control, time 5 day
# [3] = 200 mg/kg, 72 h, dose level Low, time 3 day
structure (smiles),measurement,setting,value
CC1(C)S[C@@H]2[C@H](NC(=O)[C@H](NC(=O)N3CCNC3=O)c3ccccc3)C(=O)N2[C@H]1C(=O)O [AZLOCILLIN],ABSOLUTE BASOPHIL,[1],0 CELLS/uL
same,ABSOLUTE EOSINOPHIL,[1],15.33 CELLS/uL
same,ABSOLUTE LYMPHOCYTE,[1],9513.5 CELLS/uL
same,ABSOLUTE MONOCYTE,[1],94.67 CELLS/uL
same,ABSOLUTE SEGMENTED NEUTROPHIL,[1],709.83 CELLS/uL
same,BASOPHIL,[1],0%
same,EOSINOPHIL,[1],0.17%
same,ERYTHROCYTE COUNT,[1],5.63 x10E6/uL
same,HEMATOCRIT,[1],34.63%
same,HEMOGLOBIN,[1],13.6 G/DL
same,LEUKOCYTE COUNT,[1],10.33 x10E3/uL
same,LYMPHOCYTE,[1],92%
same,MEAN CORPUSCULAR HEMOGLOBIN,[1],24.17 pg
same,MEAN CORPUSCULAR HEMOGLOBIN CONCENTRATION,[1],39.28 G/DL
same,MEAN CORPUSCULAR VOLUME,[1],61.57 fL
same,MONOCYTE,[1],0.83%
same,NEUTROPHIL,[1],7%
same,NUCLEATED RED BLOOD CELLS,[1],0 /100WBC
same,PLATELET COUNT,[1],903.17 x10E3/uL
same,ALANINE AMINOTRANSFERASE,[1],49.33 u/L
same,ALBUMIN,[1],4.27 G/DL
same,ALKALINE PHOSPHATASE,[1],400.83 u/L
same,ASPARTATE AMINOTRANSFERASE,[1],77.5 u/L
same,BLOOD UREA NITROGEN,[1],16.33 mg/dL
same,CARBON DIOXIDE,[1],29.33 mmol/L
same,CHLORIDE,[1],99.67 MEQ/L
same,CHOLESTEROL,[1],66.67 mg/dL
same,CREATINE PHOSPHOKINASE,[1],275.33 u/L
same,CREATININE,[1],0.18 mg/dL
same,GLUCOSE,[1],163.83 mg/dL
same,LACTATE DEHYDROGENASE,[1],125.33 u/L
same,LIPASE,[1],10 u/L
same,PHOSPHORUS,[1],12.12 mg/dL
same,POTASSIUM,[1],6.68 MEQ/L
same,SODIUM,[1],144.02 MEQ/L
same,TOTAL BILIRUBIN,[1],0.18 mg/dL
same,TOTAL PROTEIN,[1],5.87 G/DL
same,URIC ACID,[1],1.63 mg/dL
same,ABSOLUTE BASOPHIL,[2],0 CELLS/uL
same,ABSOLUTE EOSINOPHIL,[2],48.83 CELLS/uL
same,ABSOLUTE LYMPHOCYTE,[2],14562 CELLS/uL
same,ABSOLUTE MONOCYTE,[2],138.67 CELLS/uL
same,ABSOLUTE SEGMENTED NEUTROPHIL,[2],1733.83 CELLS/uL
same,BASOPHIL,[2],0%
same,EOSINOPHIL,[2],0.33%
same,ERYTHROCYTE COUNT,[2],5.89 x10E6/uL
same,HEMATOCRIT,[2],36.7%
same,HEMOGLOBIN,[2],14.42 G/DL
same,LEUKOCYTE COUNT,[2],16.48 x10E3/uL
same,LYMPHOCYTE,[2],88.83%
same,MEAN CORPUSCULAR HEMOGLOBIN,[2],24.52 pg
same,MEAN CORPUSCULAR HEMOGLOBIN CONCENTRATION,[2],39.3 G/DL
same,MEAN CORPUSCULAR VOLUME,[2],62.37 fL
same,MONOCYTE,[2],0.67%
same,NEUTROPHIL,[2],10.17%
same,NUCLEATED RED BLOOD CELLS,[2],0 /100WBC
same,PLATELET COUNT,[2],1076.5 x10E3/uL
same,ALANINE AMINOTRANSFERASE,[2],44.67 u/L
same,ALBUMIN,[2],4.23 G/DL
same,ALKALINE PHOSPHATASE,[2],357.33 u/L
same,ASPARTATE AMINOTRANSFERASE,[2],84.83 u/L
same,BLOOD UREA NITROGEN,[2],15.5 mg/dL
same,CARBON DIOXIDE,[2],27 mmol/L
same,CHLORIDE,[2],99.5 MEQ/L
same,CHOLESTEROL,[2],63.67 mg/dL
same,CREATINE PHOSPHOKINASE,[2],331.33 u/L
same,CREATININE,[2],0.18 mg/dL
same,GLUCOSE,[2],167.33 mg/dL
same,LACTATE DEHYDROGENASE,[2],320.17 u/L
same,LIPASE,[2],9.17 u/L
same,PHOSPHORUS,[2],12.05 mg/dL
same,POTASSIUM,[2],6.54 MEQ/L
same,SODIUM,[2],143.02 MEQ/L
same,TOTAL BILIRUBIN,[2],0.2 mg/dL
same,TOTAL PROTEIN,[2],6.23 G/DL
same,URIC ACID,[2],2.07 mg/dL
same,ABSOLUTE BASOPHIL,[3],0 CELLS/uL
same,ABSOLUTE EOSINOPHIL,[3],0 CELLS/uL
same,ABSOLUTE LYMPHOCYTE,[3],12492.33 CELLS/uL
same,ABSOLUTE MONOCYTE,[3],142.67 CELLS/uL
same,ABSOLUTE SEGMENTED NEUTROPHIL,[3],1631.67 CELLS/uL
same,BASOPHIL,[3],0%
same,EOSINOPHIL,[3],0%
same,ERYTHROCYTE COUNT,[3],5.71 x10E6/uL
same,HEMATOCRIT,[3],37.53%
same,HEMOGLOBIN,[3],14.67 G/DL
same,LEUKOCYTE COUNT,[3],14.27 x10E3/uL
same,LYMPHOCYTE,[3],87.67%
same,MEAN CORPUSCULAR HEMOGLOBIN,[3],25.73 pg
same,MEAN CORPUSCULAR HEMOGLOBIN CONCENTRATION,[3],39.1 G/DL
same,MEAN CORPUSCULAR VOLUME,[3],65.8 fL
same,MONOCYTE,[3],1%
same,NEUTROPHIL,[3],11.33%
same,NUCLEATED RED BLOOD CELLS,[3],0 /100WBC
same,PLATELET COUNT,[3],1015.67 x10E3/uL
same,ALANINE AMINOTRANSFERASE,[3],70.67 u/L
same,ALBUMIN,[3],4.47 G/DL
same,ALKALINE PHOSPHATASE,[3],482 u/L
same,ASPARTATE AMINOTRANSFERASE,[3],112.67 u/L
same,BLOOD UREA NITROGEN,[3],16.67 mg/dL
same,CARBON DIOXIDE,[3],27.33 mmol/L
same,CHLORIDE,[3],102.33 MEQ/L
same,CHOLESTEROL,[3],82.67 mg/dL
same,CREATINE PHOSPHOKINASE,[3],554 u/L
same,CREATININE,[3],0.22 mg/dL
same,GLUCOSE,[3],148 mg/dL
same,LACTATE DEHYDROGENASE,[3],194.33 u/L
same,LIPASE,[3],10 u/L
same,PHOSPHORUS,[3],11.97 mg/dL
same,POTASSIUM,[3],7.02 MEQ/L
same,SODIUM,[3],145.3 MEQ/L
same,TOTAL BILIRUBIN,[3],0.23 mg/dL
same,TOTAL PROTEIN,[3],5.97 G/DL
same,URIC ACID,[3],1.67 mg/dL
